Where a name gives a salt, the structure may show the parent alone. Read-outs that look alike come from different tables or passages of the source.

For series [1] the following is noted: alleged in literature; cited from earlier work.
For another series, the system named is mice. To be noted: in mice; cited from earlier work.
The test system of another series is platelet aggregation. To be noted: in vitro; Il Farmaco, 44 (5), 495-502, 1989; cited from earlier work.
Series [2] deals with Zymosan Stimulated Macrophaqes. The series can be described thus: Test A: Inhibition of Arachidonic Acid Release from Zymosan Stimulated Macrophages. It counts as cell-based, mouse (female MF1). To be noted: inhibition of arachidonic acid release, six concentrations (100, 50, 20, 10, 5 and 1 μM), 5 h with zymosan, read-out: Test A IC50. Summed up:
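Peritoneal macrophages from female MF1 mice, labelled overnight with [3H]-arachidonic acid (1.6 μCi/ml final), adherent cells pretreated 24 h with drug, then stimulated 5 h with fresh drug plus stimulus at 37° C. Released label counted by scintillation; net stimulated release inhibition at 1–100 μM gives IC50.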

The subject of series [3] is Carrageenan-induced rat paw oedema. The series can be described thus: Test B: Carrageenan-induced rat paw oedema test. It counts as in vivo, rat (female). The following applies: inhibition of paw oedema, 1 h before carrageenan, 3 h after injection; for inhibition in vivo at 100 mg/kg: Rattus norvegicus, po, 3 h. Here is the method: Carrageenan-induced rat paw oedema test
Female rats, weight range 125-150 g were fasted overnight. One of the hind legs of each animal was marked with a line at the connection between the cuboid/navicular and calcaneus/talus bones. Groups of six rats were orally dosed at 10 ml/kg, in random order, with a given dose of the test compound given as a solution or suspension in 10% (w/v) aqueous acacia solution.
One hour after dosing, 0.1 ml of 1% (w/v) sterile carrageenan λ in normal saline was injected deeply into the plantar surface of the marked hind foot of each rat. The volume of the foot (up to the marked line) was measured immediately after injection using duplicate water displacement readings. Three hours after injection the foot volume was measured again and the percentage increase in foot volume relative to the initial reading was calculated.
The increase in foot volume (i.e. the degree of oedema) in drug treated animals when compared with that in the drug untreated control gave the degree of inhibition of paw oedema by the drug.
Compounds were considered to be active in this test if they produced a 20% or greater inhibition of paw oedema in at least two out of three tests after oral dosing at 100 mg/kg. Statistical significance was assessed using the Student't test for single dose studies and Dunnett's test for multiple dose studies. More advantageous compounds were active in both Tests A and B,

As to `CCC(NCC(C)N1CCOCC1)c1ccc(Cl)c(Cl)c1` (stereo not drawn) [N-[2-(4-Morpholino)propyl]-α-ethyl-3,4-dichlorobenzylamine], the antiinflammatory activity entry in series [1] was “antiinflanmmtory activity”. For the same compound, the undesirable side-effects entry in the series on mice is reported as “wide range of undesirable side-effects in mice”. As for `CC(CCn1ccnc1)NCc1ccccc1` (stereo not shown) [Compound A], the “inhibitory effect on platelet aggregation” value in the series with platelet aggregation was “inhibitory effect on platelet aggregation in vitro”. On to `CC(C)(NCCCn1cncc1CO)c1ccc(Cl)cc1` [Example 88, 1-{3-[1-(4-Chlorophenyl)-1-methylethylamino]propyl}imidazol-5-yl-methanol dihydrochloride], for which the IC50 in series [2] (Mus musculus, Macrophage, 5 h) is 60 µM. For the same compound, at 100 mg/kg the inhibition in vivo in series [3] was 6%. As to `CCOC(=O)c1ccc(C(C)(C)NCCCn2ccnc2)cc1` [Example 77, Ethyl 4-{1-[3-(imidazol-1-yl)propylamino]-1-methylethyl}benzoate], in series [2] (Mus musculus, Macrophage, 5 h), the IC50 is 82 µM. Besides, the inhibition in vivo at 100 mg/kg in series [3] was 23%. Regarding `CC(NCCCn1ccnc1)c1ccc(Cl)cc1Cl` (stereo not shown) [Example 2, N-[1-(2,4-Dichlorophenyl)ethyl]-3-(imidazol-1-yl)propylamine], the concentration for half-maximal inhibition (IC50) in series [2] (Mus musculus, Macrophage, 5 h) was 39 µM. The same compound displayed an inhibition in vivo at 100 mg/kg in series [3] of 37%. As to `CCc1nccn1CCCNCc1ccc(Cl)cc1` [Example 72, N-(4-Chlorobenzyl)-3-(2-ethylimidazol-1-yl)propylamine], in series [2] (Mus musculus, Macrophage, 5 h), the IC50 was found to be 26 µM. In series [3], this compound registered an inhibition in vivo at 100 mg/kg of 18%.

Consider `CC(NCCCCn1ccnc1)c1ccc(Cl)cc1` (stereo not shown) [Example 26, N-[1-(4-Chlorophenyl)ethyl]-4-(imidazol-1-yl)butylamine], for which the IC50 in series [2] (Mus musculus, Macrophage, 5 h) came out at 56 µM. The inhibition in vivo at 100 mg/kg in series [3] was determined as 40%. As for `Cc1nccn1CCCNC(C)c1ccc(Cl)cc1` (stereo not shown) [Example 27, N-[1-(4-Chlorophenyl)ethyl]-3-(2-methylimidazol-1-yl)propylamine dihydrochloride], in series [2] (Mus musculus, Macrophage, 5 h), the IC50 was 8 µM. In addition, 100 mg/kg produced 27% inhibition in vivo in series [3]. As to `CC(NCCCn1ccnc1)c1ccc(Br)cc1` (stereo not shown) [Example 14, N-[1-(4-Bromophenyl)ethyl]-3-(imidazol-1-yl)propylamine], in series [2] (Mus musculus, Macrophage, 5 h), the half-maximal inhibitory concentration (IC50) was 60 µM. Besides, in series [3], 100 mg/kg produced 60% inhibition in vivo. Take `Clc1ccc(CNCCCn2cnc(Cl)c2Cl)cc1` [Example 64, N-(4-chlorobenzyl)-3-(4,5-dichloroimidazol-1-yl)propylamine dihydrochloride]: the IC50 in series [2] (Mus musculus, Macrophage, 5 h) was 18 µM. Moreover, testing at 100 mg/kg in series [3] gave an inhibition in vivo of 30%. Take `CC(NCCCn1ccnc1-c1ccccc1)c1ccc(Cl)cc1` (stereo not shown) [Example 25, N-[1-(4-Chlorophenyl)ethyl]-3-(2-phenylimidazol-1-yl)propylamine dihydrochloride hydrate]: the IC50 in series [2] (Mus musculus, Macrophage, 5 h) is 19 µM. In series [3], this compound yielded an inhibition in vivo at 100 mg/kg of 34%. For the compound `CC(NCCCn1ccnc1)c1ccc(Cl)cc1` (single isomer, unassigned; (+)) [Example 56, (+) N-[1-(4-Chlorophenyl)ethyl]-3-(imidazol-1-yl)propylamine dihydrochloride], the IC50 in series [2] (Mus musculus, Macrophage, 5 h) amounted to 16 µM. The compound further displayed an inhibition in vivo at 100 mg/kg in series [3] of 57%. Consider `Clc1ccc(CNCCCn2ccnc2)c(Cl)c1` [Example 41, N-(2,4-Dichlorobenzyl)-3-(imidazol-1-yl)propylamine], for which the half-maximal inhibitory concentration (IC50) in series [2] (Mus musculus, Macrophage, 5 h) stood at 58 µM. The inhibition in vivo at 100 mg/kg in series [3] came out at 29%. Take `CC(NCC(C)(C)Cn1ccnc1)c1ccc(Cl)cc1` (stereo not shown) [Example 58, N-[1-(4-chlorophenyl)ethyl]-3-(imidazol-1-yl)-2,2-dimethylpropylamine]: the half-inhibitory concentration (IC50) in series [2] (Mus musculus, Macrophage, 5 h) is 55 µM. The inhibition in vivo at 100 mg/kg in series [3] is 79%. Take `Clc1ccc(C2(NCCCn3ccnc3)CC2)cc1` [Example 82, N-[1-(4-Chlorophenyl)cycloprop-1-yl]-3-(imidazol-1-yl)propylamine dihydrochloride]: the IC50 in series [2] (Mus musculus, Macrophage, 5 h) was found to be 16 µM. The same compound returned an inhibition in vivo at 100 mg/kg in series [3] of 38%. As for “N-[1-(4-Chlorophenyl)ethyl]-3-(4/5-methylimidazol-1-yl)propylamine [Example 54]”, the IC50 in series [2] worked out at 12 µM. The “Test B % inhibition at 100 mg/kg” value in series [3] (oral) is 63%. Turning to `Cc1ncn(CCCNCc2ccc(Cl)cc2)c1C` [Example 45, N-(4-Chlorobenzyl)-3-(4,5-dimethylimidazol-1-yl)propylamine dihydrochloride], in series [2] (Mus musculus, Macrophage, 5 h), the concentration for half-maximal inhibition (IC50) was determined as 8 µM. For the same compound, in series [3], 100 mg/kg produced 6% inhibition in vivo. Regarding `CCOC(=O)c1c(C)ncn1CCCNC(C)(C)c1ccc(Cl)cc1` [Example 78, Ethyl 1-{3-[1-(4-chlorophenyl)-1-methylethylamino]propyl)-4-methylimidazole-5-carboxylate], the half-inhibitory concentration (IC50) in series [2] (Mus musculus, Macrophage, 5 h) came out at 20 µM. In addition, the inhibition in vivo at 100 mg/kg in series [3] turned out to be 7%. For the compound `CC(C)c1nccn1CCCNC(C)c1ccc(Cl)cc1` (stereo not shown) [Example 65, N-[1-(4-Chlorophenyl)ethyl]-3-(2-isopropylimidazol-1-yl)propylamine], the IC50 in series [2] (Mus musculus, Macrophage, 5 h) was 18 µM. For the same compound, in series [3], the inhibition in vivo at 100 mg/kg came to 27%. Turning to `CCC(NCCCn1ccnc1)c1ccc(Cl)cc1` (stereo not shown) [Example 30, N-[1-(4-chlorophenyl)propyl]-3-(imidazol-1-yl)propylamine oxalate], the IC50 in series [2] (Mus musculus, Macrophage, 5 h) came out at 24 µM. In series [3], testing at 100 mg/kg gave an inhibition in vivo of 39%. Turning to `CC(NCCCn1ccnc1)c1cccc(Cl)c1` (stereo not shown) [Example 7, N-[1-(3-Chlorophenyl)ethyl]-3-(imidazol-1-yl)propylamine], the IC50 in series [2] (Mus musculus, Macrophage, 5 h) was 94 µM. Also, testing at 100 mg/kg in series [3] gave an inhibition in vivo of 48%.

Take `CC(NCCCn1ccnc1)c1ccc(Cl)cc1O` (stereo not shown) [Example 29, 5-chloro-2-{1-[3-(imidazol-1-yl)propylamino]ethyl}phenol dihydrochloride]: the 50% inhibitory concentration (IC50) in series [2] (Mus musculus, Macrophage, 5 h) came out at 34 µM. The same compound yielded an inhibition in vivo at 100 mg/kg in series [3] of 36%.

By IC50 is commonly meant the concentration at which inhibition is half-maximal. One may read the inhibition in vivo as the relative decrease from the control value, in per cent. A higher inhibition in vivo goes with a strong effect.

The values are drawn from patent US5547972A, “Therapeutic agents useful for treating inflammatory diseases” (The Boots Company PLC, priority 1991, dated 1996).
